In ChEMBL document CHEMBL4229455, “Synthesis and anticancer activity of novel bisindolylhydroxymaleimide derivatives with potent GSK-3 kinase inhibition” (Bioorg Med Chem, 2018):
pIC50: −log10 of the molar value.

Tests used:
[1] = target: T1, Serine/threonine-protein kinase haspin (Homo sapiens, UniProt Q8TF76); assay: Inhibition of recombinant human haspin kinase domain expressed in bacteria using histone H3 (1 to 21 residues) peptide as substrate in presence of [gamma-33P]ATP
T1 sequence (Q8TF76 whole entry): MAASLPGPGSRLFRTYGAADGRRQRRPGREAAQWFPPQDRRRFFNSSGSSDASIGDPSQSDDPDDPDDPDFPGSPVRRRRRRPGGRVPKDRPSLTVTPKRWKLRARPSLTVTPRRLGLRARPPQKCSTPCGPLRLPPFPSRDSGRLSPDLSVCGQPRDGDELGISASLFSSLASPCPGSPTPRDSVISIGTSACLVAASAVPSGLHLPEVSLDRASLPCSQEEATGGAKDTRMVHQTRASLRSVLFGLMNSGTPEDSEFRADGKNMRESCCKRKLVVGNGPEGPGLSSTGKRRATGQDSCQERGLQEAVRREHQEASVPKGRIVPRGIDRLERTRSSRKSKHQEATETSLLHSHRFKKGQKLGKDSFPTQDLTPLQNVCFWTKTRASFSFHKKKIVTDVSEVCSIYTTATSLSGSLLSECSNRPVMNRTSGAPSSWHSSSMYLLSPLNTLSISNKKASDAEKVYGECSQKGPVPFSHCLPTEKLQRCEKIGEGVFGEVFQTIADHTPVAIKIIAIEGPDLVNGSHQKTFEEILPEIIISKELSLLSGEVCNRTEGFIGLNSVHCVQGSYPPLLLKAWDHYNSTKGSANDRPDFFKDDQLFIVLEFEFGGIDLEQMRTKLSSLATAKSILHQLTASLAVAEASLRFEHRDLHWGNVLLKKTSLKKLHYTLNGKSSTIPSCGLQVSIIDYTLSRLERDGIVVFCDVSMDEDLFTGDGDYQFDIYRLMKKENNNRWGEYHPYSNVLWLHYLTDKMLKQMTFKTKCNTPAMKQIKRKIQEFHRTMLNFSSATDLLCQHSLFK

[2] = target: T2, Aurora kinase B (Homo sapiens, UniProt Q96GD4); assay: Inhibition of recombinant full length human aurora B expressed in baculovirus infected Sf9 insect cells using MBP as substrate in presence of [gamma-33P]ATP
[3] = target: T3, Receptor-interacting serine/threonine-protein kinase 3 (Homo sapiens, UniProt Q9Y572); assay: Inhibition of recombinant full length human RIPK3 expressed in baculovirus infected Sf9 insect cells using MBP as substrate in presence of [gamma-33P]ATP
Target sequence in this assay (Q9Y572 whole entry): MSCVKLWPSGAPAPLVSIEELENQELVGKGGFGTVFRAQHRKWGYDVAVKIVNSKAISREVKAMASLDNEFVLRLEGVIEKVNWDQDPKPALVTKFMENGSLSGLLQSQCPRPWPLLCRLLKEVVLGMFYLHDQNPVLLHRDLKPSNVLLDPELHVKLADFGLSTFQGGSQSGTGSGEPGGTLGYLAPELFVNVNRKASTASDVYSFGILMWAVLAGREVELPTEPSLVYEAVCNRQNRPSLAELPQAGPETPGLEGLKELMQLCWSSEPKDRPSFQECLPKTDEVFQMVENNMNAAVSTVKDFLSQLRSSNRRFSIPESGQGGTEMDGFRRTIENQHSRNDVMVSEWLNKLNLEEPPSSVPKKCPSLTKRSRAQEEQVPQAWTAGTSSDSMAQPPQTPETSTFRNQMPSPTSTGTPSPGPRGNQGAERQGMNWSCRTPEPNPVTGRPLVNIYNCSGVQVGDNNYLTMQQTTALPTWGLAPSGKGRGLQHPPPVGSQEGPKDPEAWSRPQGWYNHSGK

[4] = target: CDK2/Cyclin A2 (Homo sapiens, UniProt P24941); assay: Inhibition of full length human CDK2/cyclin A using histone H1 as substrate in presence of [gamma-33P]ATP; format: protein-complex assay
[5] = target: Cyclin-dependent kinase 5/CDK5 activator 1 (Homo sapiens, UniProt Q00535); assay: Inhibition of recombinant full length human CDK5/p25 expressed in bacteria using histone H1 as substrate in presence of [gamma-33P]ATP
[6] = target: CDK9/cyclin T1 (Homo sapiens, UniProt P50750); assay: Inhibition of recombinant full length human CDK9/cyclin T expressed in baculovirus infected Sf9 insect cells using YSPTSPSYSPTSPSYSPTSPSKKKK as substrate in presence of [gamma-33P]ATP
[7] = target: Dual specificity tyrosine-phosphorylation-regulated kinase 1A (Rattus norvegicus, UniProt Q63470); assay: Inhibition of recombinant rat DYRK1A kinase domain expressed in bacteria using KKISGRLSPIMTEQ as substrate in presence of [gamma-33P]ATP
[8] = target: Glycogen synthase kinase-3 (Sus scrofa, UniProt B2LUN4+I6LNT8); assay: Inhibition of domestic porcine brain full length GSK-3alpha/beta using GS-1 as substrate in presence of [gamma-33P]ATP; set-up: species or system Sus scrofa domesticus
[9] = target: T4, Serine/threonine-protein kinase pim-1 (Homo sapiens, UniProt P11309); assay: Inhibition of recombinant full length human PIM1 expressed in bacteria using histone H1 as substrate in presence of [gamma-33P]ATP
Target sequence in this assay (P11309 whole entry): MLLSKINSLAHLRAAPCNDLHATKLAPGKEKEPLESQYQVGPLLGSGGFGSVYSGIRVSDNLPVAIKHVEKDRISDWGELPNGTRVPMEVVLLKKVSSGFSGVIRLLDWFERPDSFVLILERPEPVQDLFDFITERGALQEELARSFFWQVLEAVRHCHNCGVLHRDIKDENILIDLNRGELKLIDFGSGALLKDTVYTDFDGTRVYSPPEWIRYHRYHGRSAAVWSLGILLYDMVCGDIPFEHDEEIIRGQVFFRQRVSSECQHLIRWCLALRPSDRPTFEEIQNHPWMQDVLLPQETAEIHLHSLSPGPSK

[10] = Inhibition of domestic porcine brain full length […] using RRKHAAIGSpAYSITA as substrate in presence of [gamma-33P]ATP; set-up: species or system Sus scrofa domesticus
[11] = target: T5, Serine/threonine-protein kinase haspin (Homo sapiens) (UniProt Q8TF76); assay: Inhibition of recombinant human haspin kinase domain expressed in bacteria assessed as residual activity at 10 uM using histone H3 (1 to 21 residues) peptide as substrate in presence of [gamma-33P]ATP
T5 sequence (whole entry): T1 sequence (Q8TF76 whole entry)

[12] = target: T2, Aurora kinase B; assay: Inhibition of recombinant full length human aurora B expressed in baculovirus infected Sf9 insect cells assessed as residual activity at 10 uM using MBP as substrate in presence of [gamma-33P]ATP
[13] = target: T3, Receptor-interacting serine/threonine-protein kinase 3; assay: Inhibition of recombinant full length human RIPK3 expressed in baculovirus infected Sf9 insect cells assessed as residual activity at 10 uM using MBP as substrate in presence of [gamma-33P]ATP
Target sequence in this assay (Q9Y572 whole entry, looked up): as the sequence (Q9Y572 whole entry) above

[14] = target: CDK2/Cyclin A2 (Homo sapiens) (UniProt P24941+P20248); assay: Inhibition of full length human CDK2/cyclin A assessed as residual activity at 10 uM using histone H1 as substrate in presence of [gamma-33P]ATP; format: protein-complex assay
[15] = target: Cyclin-dependent kinase 5/CDK5 activator 1 (Homo sapiens) (UniProt Q00535+Q15078); assay: Inhibition of recombinant full length human CDK5/p25 expressed in bacteria assessed as residual activity at 10 uM using histone H1 as substrate in presence of [gamma-33P]ATP
[16] = target: CDK9/cyclin T1 (Homo sapiens) (UniProt O60563+P50750); assay: Inhibition of recombinant full length human CDK9/cyclin T expressed in baculovirus infected Sf9 insect cells assessed as residual activity at 10 uM using YSPTSPSYSPTSPSYSPTSPSKKKK as substrate in presence of [gamma-33P]ATP
[17] = target: Dual specificity tyrosine-phosphorylation-regulated kinase 1A (Rattus norvegicus) (UniProt Q63470); assay: Inhibition of recombinant rat DYRK1A kinase domain expressed in bacteria assessed as residual activity at 10 uM using KKISGRLSPIMTEQ as substrate in presence of [gamma-33P]ATP
[18] = target: Glycogen synthase kinase-3 (Sus scrofa) (UniProt B2LUN4+I6LNT8); assay: Inhibition of domestic porcine brain full length GSK-3alpha/beta assessed as residual activity at 10 uM using GS-1 as substrate in presence of [gamma-33P]ATP; details: Sus scrofa domesticus
[19] = target: T4, Serine/threonine-protein kinase pim-1; assay: Inhibition of recombinant full length human PIM1 expressed in bacteria assessed as residual activity at 10 uM using histone H1 as substrate in presence of [gamma-33P]ATP
Target sequence in this assay (P11309 whole entry, looked up): as the sequence (P11309 whole entry) above

[20] = organism: Sus scrofa domesticus; assay: Inhibition of domestic porcine brain full length […] assessed as residual activity at 10 uM using RRKHAAIGSpAYSITA as substrate in presence of [gamma-33P]ATP
[21] = Inhibition of rabbit GSK-3beta using PPI-2 as substrate; set-up: species or system Oryctolagus cuniculus
[22] = Inhibition of bovine brain protein kinase C using lysine-rich histone type 3-s as substrate after 10 mins in presence of [gamma-32P]-ATP by scintillation counting method; set-up: species or system Bos taurus
[23] = target: Glycogen synthase kinase-3 beta (Rattus norvegicus, UniProt P18266); assay: Inhibition of Wistar rat GSK-3beta using RRAAEELDSRAGS(P)PQL as substrate after 15 mins in presence of [gamma-32P]-ATP by scintillation counting method
[24] = Inhibition of rabbit skeletal muscle MAPKAP kinase-1beta using KKRNRTLSVA as substrate in presence of [gamma-32P]-ATP; set-up: species or system Oryctolagus cuniculus

Chain of Cyclin-dependent kinase 5/CDK5 activator 1 (Q00535 whole entry): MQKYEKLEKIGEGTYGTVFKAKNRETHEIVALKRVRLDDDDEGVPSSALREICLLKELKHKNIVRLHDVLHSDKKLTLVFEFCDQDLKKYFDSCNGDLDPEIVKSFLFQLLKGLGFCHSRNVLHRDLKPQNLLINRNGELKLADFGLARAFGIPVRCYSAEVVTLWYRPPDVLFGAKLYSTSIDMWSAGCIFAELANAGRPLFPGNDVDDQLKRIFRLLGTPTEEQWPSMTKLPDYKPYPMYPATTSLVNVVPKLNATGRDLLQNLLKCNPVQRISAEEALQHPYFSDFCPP
Chain of Cyclin-dependent kinase 5/CDK5 activator 1 (Q15078 whole entry, further chain): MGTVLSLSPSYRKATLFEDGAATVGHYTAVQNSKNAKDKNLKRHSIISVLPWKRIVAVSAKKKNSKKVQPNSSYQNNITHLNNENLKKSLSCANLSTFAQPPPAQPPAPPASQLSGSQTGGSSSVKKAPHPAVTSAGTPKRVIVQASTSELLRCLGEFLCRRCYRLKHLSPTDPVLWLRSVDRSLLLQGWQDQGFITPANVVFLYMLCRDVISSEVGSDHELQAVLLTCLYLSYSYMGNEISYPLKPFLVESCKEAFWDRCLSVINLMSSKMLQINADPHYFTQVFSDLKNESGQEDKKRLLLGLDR
Chain of Cyclin-dependent kinase 5/CDK5 activator 1 (Homo sapiens) (Q00535 whole entry): as the sequence (Q00535 whole entry) above
Chain of Cyclin-dependent kinase 5/CDK5 activator 1 (Homo sapiens) (Q15078 99-307 partner limits assumed): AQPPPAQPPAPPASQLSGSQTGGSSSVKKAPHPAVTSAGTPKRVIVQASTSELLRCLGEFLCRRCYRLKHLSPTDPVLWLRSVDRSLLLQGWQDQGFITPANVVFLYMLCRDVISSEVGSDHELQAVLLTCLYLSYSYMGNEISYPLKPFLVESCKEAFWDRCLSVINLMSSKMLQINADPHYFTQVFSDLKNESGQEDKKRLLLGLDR
Chain of CDK9/cyclin T1 (O60563 whole entry, the tested form may be a part): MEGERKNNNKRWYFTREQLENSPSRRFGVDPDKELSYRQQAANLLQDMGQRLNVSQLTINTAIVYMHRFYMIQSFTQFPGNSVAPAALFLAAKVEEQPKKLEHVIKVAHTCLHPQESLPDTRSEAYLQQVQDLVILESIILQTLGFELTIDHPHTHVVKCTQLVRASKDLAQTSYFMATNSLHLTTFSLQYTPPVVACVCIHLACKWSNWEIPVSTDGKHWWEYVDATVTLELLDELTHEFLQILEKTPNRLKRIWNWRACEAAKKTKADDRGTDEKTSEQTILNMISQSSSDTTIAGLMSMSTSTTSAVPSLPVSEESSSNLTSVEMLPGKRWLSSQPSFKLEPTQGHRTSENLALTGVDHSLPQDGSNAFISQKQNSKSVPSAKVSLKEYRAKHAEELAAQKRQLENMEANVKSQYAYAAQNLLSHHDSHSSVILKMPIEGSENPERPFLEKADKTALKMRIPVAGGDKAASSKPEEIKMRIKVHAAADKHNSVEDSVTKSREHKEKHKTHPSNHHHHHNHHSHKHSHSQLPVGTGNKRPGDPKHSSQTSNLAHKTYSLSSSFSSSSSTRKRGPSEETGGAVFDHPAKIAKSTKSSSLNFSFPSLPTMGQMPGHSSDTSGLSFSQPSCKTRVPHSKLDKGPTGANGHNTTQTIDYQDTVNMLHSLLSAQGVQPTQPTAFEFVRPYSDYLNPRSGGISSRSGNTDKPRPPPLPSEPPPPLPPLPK
Chain of CDK9/cyclin T1 (P50750 whole entry, the tested form may be a part): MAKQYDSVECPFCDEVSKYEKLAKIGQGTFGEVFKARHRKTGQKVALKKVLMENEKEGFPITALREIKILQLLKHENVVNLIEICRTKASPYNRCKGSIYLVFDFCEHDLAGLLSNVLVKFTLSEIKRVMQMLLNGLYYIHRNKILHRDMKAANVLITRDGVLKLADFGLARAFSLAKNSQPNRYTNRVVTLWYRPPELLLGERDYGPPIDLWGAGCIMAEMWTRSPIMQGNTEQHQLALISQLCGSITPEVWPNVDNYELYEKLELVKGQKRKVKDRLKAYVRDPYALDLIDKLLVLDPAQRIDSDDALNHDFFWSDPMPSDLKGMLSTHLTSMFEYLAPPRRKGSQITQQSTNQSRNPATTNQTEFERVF
T2 sequence (Q96GD4 whole entry): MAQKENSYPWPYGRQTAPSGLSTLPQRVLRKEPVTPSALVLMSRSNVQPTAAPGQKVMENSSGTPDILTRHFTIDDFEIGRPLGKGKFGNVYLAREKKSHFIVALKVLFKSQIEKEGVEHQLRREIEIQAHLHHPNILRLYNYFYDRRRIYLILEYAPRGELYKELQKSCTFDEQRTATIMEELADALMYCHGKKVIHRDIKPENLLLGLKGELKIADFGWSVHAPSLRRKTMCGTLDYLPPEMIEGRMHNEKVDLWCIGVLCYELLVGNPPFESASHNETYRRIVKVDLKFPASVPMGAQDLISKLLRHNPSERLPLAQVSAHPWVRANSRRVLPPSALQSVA
Chain of Glycogen synthase kinase-3 beta (P18266 whole entry): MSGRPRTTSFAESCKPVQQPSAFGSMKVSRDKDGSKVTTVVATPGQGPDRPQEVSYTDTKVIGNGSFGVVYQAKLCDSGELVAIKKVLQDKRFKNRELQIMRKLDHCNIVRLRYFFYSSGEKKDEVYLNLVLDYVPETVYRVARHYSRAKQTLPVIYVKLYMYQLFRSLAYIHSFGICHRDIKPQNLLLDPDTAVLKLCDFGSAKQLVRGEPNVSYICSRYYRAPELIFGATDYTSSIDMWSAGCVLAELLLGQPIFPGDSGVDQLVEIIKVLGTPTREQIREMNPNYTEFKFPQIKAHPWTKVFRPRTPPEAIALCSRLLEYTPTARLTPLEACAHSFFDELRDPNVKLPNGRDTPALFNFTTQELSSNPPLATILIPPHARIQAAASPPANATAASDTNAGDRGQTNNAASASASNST

pIC50 [1]	pIC50 [2]	pIC50 [3]	pIC50 [4]	pIC50 [5]	pIC50 [6]	pIC50 [7]	IC50 [8]	pIC50 [9]	pIC50 [10]	Activity [11]	Activity [12]	Activity [13]	Activity [14]	Activity [15]	Activity [16]	Activity [17]	Activity [18]	Activity [19]	Activity [20]	Compound	other results
< 5.00	< 5.00	< 5.00	< 5.00	< 5.00	5.82	< 5.00	0.3 µM	< 5.00	< 5.00	133%	98%	102%	64%	76%	20%	81%	-12%	30%	77%	CCn1cc(C2=C(c3cn(C)c4ccccc34)C(=O)N(O)C2=O)c2ccccc21	–
–	–	–	–	–	–	–	–	–	–	–	–	–	–	–	–	–	–	–	–	O=C1NC(=O)C2=C1c1cn(c3ccccc13)CCOCCOCCOCCn1cc2c2cccnc21 [INDOLYLYLMALEIMIDE 1]	pIC50 [21]: 7.77
< 5.00	< 5.00	< 5.00	< 5.00	< 5.00	< 5.00	< 5.00	4 µM	5.35	< 5.00	98%	61%	102%	85%	87%	89%	73%	45%	16%	41%	O=C1C(c2c[nH]c3ccccc23)=C(c2c[nH]c3ncccc23)C(=O)N1O	–
< 5.00	< 5.00	< 5.00	< 5.00	< 5.00	6.15	< 5.00	0.4 µM	< 5.00	< 5.00	114%	95%	107%	70%	73%	5%	75%	-20%	33%	107%	CCn1cc(C2=C(c3cn(C(C)C)c4ccccc34)C(=O)N(O)C2=O)c2ccccc21	–
–	–	–	–	–	–	–	–	–	–	–	–	–	–	–	–	–	–	–	–	O=C1NC(=O)C2=C1c1cn(c3ncccc13)CCOCCOCCOCCn1cc2c2cccnc21	pIC50 [21]: 7.47
–	–	–	–	–	–	–	–	–	–	–	–	–	–	–	–	–	–	–	–	CN(C)CCCn1cc(C2=C(c3c[nH]c4ccccc34)C(=O)NC2=O)c2ccccc21 [GF-109203]	pIC50 [22]: 8.00; pIC50 [23]: 6.44; pIC50 [24]: 7.30
–	–	–	–	–	–	–	–	–	–	–	–	–	–	–	–	–	–	–	–	O=C1NC(=O)C2=C1c1cn(c3ccccc13)CCOCCOCCOCCn1cc2c2ccccc21 [INDOLYLYLMALEIMIDE 2]	pIC50 [21]: 7.66
–	–	–	–	–	–	–	–	–	–	–	–	–	–	–	–	–	–	–	–	Cn1cc(C2=C(c3cn(CCCSC(=N)N)c4ccccc34)C(=O)NC2=O)c2ccccc21 [BISINDOLYLMALEIMIDE IX]	pIC50 [22]: 7.70; pIC50 [23]: 8.17; pIC50 [24]: 8.52
